Results as given in US20170226503A1, “Methods for Sequential Screening with Co-Culture Based Detection of Metagenomic Elements Conferring Heterologous Metabolite Secretion” (MetaMixis Biologics, Inc., priority 2014, published 2017).

System: MIE p10c20
Test: Validation of MIE p10c20 from retrofitted metagenomic library (fluorescence)
Assay type: cell-based
Conditions: 1 mM
Source text: A metagenomic DNA library was “retroffited” as described herein and shown in FIG. 15 to identify a metabolite induced element (MIE). In FIG. 16 fluoresence plots are shown for a retroffited metagenomic library assayed for fluorescence emitted by the fluorescent marker. […] Induction was by a pool of pCoumaric acid, Vanillic acid and Vanillin. The circled data point that represents a fosmid clone harboring a candidate MIE (p10c20) which was selected for further investigation.

Q: With `O=C(O)/C=C/c1ccc(O)cc1` [pCoumaric acid] as the molecule, how does the “responsiveness of MIE p10c20” value read?
A: most responsive
